# Laboratory results from patent publication US9045493B2, “Furo[3,2-b]- and thieno[3,2-b]pyridin derivatives” (Merck Patent GmbH, priority 2012, dated 2015).
# Key:
# [1] = biological target: T1, TANK binding kinase (TBK1) (Homo sapiens, UniProt Q9UHD2); experiment: TBK1 enzyme assay (384-well Flashplate kinase assay); type: biochemical; settings: 10 μM ATP, 120 Min at 30° C.
# T1 sequence (Q9UHD2 1-729): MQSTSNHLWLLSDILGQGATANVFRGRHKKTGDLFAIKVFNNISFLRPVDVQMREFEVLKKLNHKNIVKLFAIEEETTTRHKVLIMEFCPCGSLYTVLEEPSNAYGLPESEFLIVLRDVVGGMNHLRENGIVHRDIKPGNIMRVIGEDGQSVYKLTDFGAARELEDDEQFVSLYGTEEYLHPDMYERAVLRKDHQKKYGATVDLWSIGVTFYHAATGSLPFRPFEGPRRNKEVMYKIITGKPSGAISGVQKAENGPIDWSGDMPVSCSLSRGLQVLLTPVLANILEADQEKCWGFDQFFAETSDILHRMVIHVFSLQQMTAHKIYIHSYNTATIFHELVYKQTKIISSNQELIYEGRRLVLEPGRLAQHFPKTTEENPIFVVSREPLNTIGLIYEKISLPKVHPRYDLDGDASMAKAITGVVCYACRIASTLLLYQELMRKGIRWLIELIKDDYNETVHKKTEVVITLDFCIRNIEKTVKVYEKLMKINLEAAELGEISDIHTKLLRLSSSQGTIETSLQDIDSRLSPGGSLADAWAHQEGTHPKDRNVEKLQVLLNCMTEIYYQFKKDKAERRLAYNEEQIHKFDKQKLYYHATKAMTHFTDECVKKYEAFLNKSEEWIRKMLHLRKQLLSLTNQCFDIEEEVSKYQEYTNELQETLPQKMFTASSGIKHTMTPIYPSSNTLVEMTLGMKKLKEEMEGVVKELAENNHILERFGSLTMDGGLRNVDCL
# Summary of the method: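 Radiometric Flashplate assay: 0.6 nM TBK1, 800 nM biotinylated MELK-derived peptide and 10 μM ATP with 33P-ATP, 120 min at 30 °C in MOPS/Mg-acetate buffer pH 7.5. Stopped with EDTA; nonspecific signal defined with 100 nM staurosporine; IC50 from counted radioactivity.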
# [2] = biological target: T2, IKKε (Homo sapiens, UniProt Q14164); experiment: IKKε kinase assay (384-well Flashplate); type: biochemical; settings: 10 μM ATP, 2 hours at 30° C.; read-out: IKKε enzyme assay IC50
# T2 sequence (Q14164 1-716): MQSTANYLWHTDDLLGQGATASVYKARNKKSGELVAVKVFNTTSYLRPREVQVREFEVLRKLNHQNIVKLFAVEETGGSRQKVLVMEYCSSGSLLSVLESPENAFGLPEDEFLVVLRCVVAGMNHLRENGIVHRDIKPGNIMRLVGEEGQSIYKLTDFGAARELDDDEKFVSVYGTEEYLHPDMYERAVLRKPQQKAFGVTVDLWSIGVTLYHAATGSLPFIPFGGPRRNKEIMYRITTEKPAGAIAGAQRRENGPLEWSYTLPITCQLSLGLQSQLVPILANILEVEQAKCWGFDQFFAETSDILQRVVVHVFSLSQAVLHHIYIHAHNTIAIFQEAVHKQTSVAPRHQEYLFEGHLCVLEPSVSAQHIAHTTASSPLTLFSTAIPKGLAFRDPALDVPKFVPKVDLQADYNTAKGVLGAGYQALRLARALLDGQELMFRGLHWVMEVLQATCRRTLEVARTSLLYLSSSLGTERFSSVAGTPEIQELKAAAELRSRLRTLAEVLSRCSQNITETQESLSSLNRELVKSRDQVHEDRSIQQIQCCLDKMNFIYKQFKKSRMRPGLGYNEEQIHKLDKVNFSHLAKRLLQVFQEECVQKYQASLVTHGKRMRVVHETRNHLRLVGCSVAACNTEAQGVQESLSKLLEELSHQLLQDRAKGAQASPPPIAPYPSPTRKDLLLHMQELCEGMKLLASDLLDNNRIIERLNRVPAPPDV
# Summary of the method: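 1 nM IKKε with 800 nM biotinylated IκBα(19-42) peptide and 10 μM ATP spiked with ^33P-ATP, 2 h at 30 °C in MOPS buffer pH 7.5. EDTA stop, Flashplate capture, washes, then radioactivity counted; IC50 derived.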
SMILES,IC50 [1] [nM],IC50 [2] [nM]
CN1CCN(C(=O)c2ccc(-c3cc4nccc(-c5ccc(N6CCOCC6)c(C#N)c5)c4o3)cc2)CC1 [Compound A76],< 300,< 300
N#Cc1cc(-c2ccnc3cc(-c4ccc(C(=O)NCCN5CCNC5=O)cc4)oc23)ccc1OC1CCOCC1 [Compound A77],< 300,< 300
N#Cc1cc(-c2ccnc3cc(-c4ccc(C(=O)NCCN5CCCC5)cc4)oc23)ccc1OC1CCOCC1 [Compound A78],< 300,< 300
N#Cc1cc(-c2ccnc3cc(-c4ccc(C(=O)NCCN5CCOCC5)cc4)oc23)ccc1OC1CCOCC1 [Compound A79],< 300,< 300
CC(=O)NCCNC(=O)c1ccc(-c2cc3nccc(-c4ccc(OC5CCOCC5)c(C#N)c4)c3o2)cc1 [Compound A80],< 300,< 300
N#Cc1cc(-c2ccnc3cc(-c4ccc(C(=O)NCCc5cccnc5)cc4)oc23)ccc1OC1CCOCC1 [Compound A81],300 to 3000,< 300
N#Cc1cc(-c2ccnc3cc(-c4ccc(C(=O)NC5COc6ccccc6C5)cc4)oc23)ccc1OC1CCOCC1 (stereo not shown) [Compound A82],300 to 3000,300 to 3000
N#Cc1cc(-c2ccnc3cc(-c4ccc(C(=O)NCCN5CCC(F)(F)CC5)cc4)oc23)ccc1OC1CCOCC1 [Compound A83],< 300,< 300
N#Cc1cc(-c2ccnc3cc(-c4ccc(C(=O)N5CCN(CCO)CC5)cc4)oc23)ccc1OC1CCOCC1 [Compound A84],< 300,< 300
N#Cc1cc(-c2ccnc3cc(-c4ccc(C(=O)NCCC(F)(F)F)cc4)oc23)ccc1OC1CCOCC1 [Compound A85],300 to 3000,300 to 3000
N#Cc1cc(-c2ccnc3cc(-c4ccc(C(=O)N5CCNC(=O)CC5)cc4)oc23)ccc1OC1CCOCC1 [Compound A86],< 300,< 300
COc1cc(-c2cc3nccc(-c4ccc(OC5CCOCC5)c(C#N)c4)c3o2)ccc1C(=O)NCCN1CCNC1=O [Compound A87],< 300,< 300
COc1cc(-c2cc3nccc(-c4ccc(OC5CCOCC5)c(C#N)c4)c3o2)ccc1C(=O)NC1CCCN(C)C1 (stereo not shown) [Compound A88],< 300,< 300
COc1cc(-c2cc3nccc(-c4ccc(OC5CCOCC5)c(C#N)c4)c3o2)ccc1C(=O)N1CCN(CCO)CC1 [Compound A89],< 300,< 300
COc1cc(-c2cc3nccc(-c4ccc(OC5CCOCC5)c(C#N)c4)c3o2)ccc1C(=O)NCCN1CCC(F)(F)CC1 [Compound A90],< 300,< 300
COc1cc(-c2cc3nccc(-c4ccc(OC5CCOCC5)c(C#N)c4)c3o2)ccc1C(=O)N1CCNC(=O)CC1 [Compound A91],< 300,< 300
COc1cc(-c2cc3nccc(-c4ccc(OC5CCOCC5)c(C#N)c4)c3o2)ccc1C(=O)N1CC[C@H](O)C1 [Compound A92],< 300,< 300
COc1cc(-c2cc3nccc(-c4ccc(OC5CCOCC5)c(C#N)c4)c3o2)ccc1C(=O)NCC(N)=O [Compound A93],< 300,< 300
COc1cc(-c2cc3nccc(-c4ccc(OC5CCOCC5)c(C#N)c4)c3o2)ccc1C(=O)N[C@H]1CCCNC1 [Compound A94],< 300,< 300
CN(CCO)C(=O)c1ccc(-c2cc3nccc(-c4ccc(OC5CCOC5)c(C#N)c4)c3s2)cc1 (stereo not shown) [Compound A95],< 300,< 300
N#Cc1cc(-c2ccnc3cc(-c4cnn(C5CCNCC5)c4)sc23)ccc1OC1CCOCC1 [Compound A96],< 300,< 300
N#Cc1cc(-c2ccnc3cc(-c4cnn(C5CCN(CCO)CC5)c4)sc23)ccc1OC1CCOCC1 [Compound A97],< 300,< 300
COc1cc(-c2cc3nccc(-c4ccc(OC5CCOCC5)c(C#N)c4)c3o2)ccc1C(=O)N1CC[C@@H](O)C1 [Compound A98],< 300,< 300
